Experimental data taken from US10676468B2, “N-(3-heteroarylaryl)-4-arylarylcarboxamides and analogs as hedgehog pathway inhibitors and use thereof” (IMPACT Therapeutics, Inc., priority 2012, dated 2020).
pIC50: −log10 of the molar value.

Tests used:
[1] = system: Hedgehog Signaling Pathway; assay: SAG-induced differentiation of C3H10T1/2 cells into osteoblastic cells, intracellular alkaline phosphatase activity; assay type: cell-based, mouse; conditions: Mus musculus, C3H 10T1/2, 120 h, 1 μM SAG, 5 days, alkaline phosphatase activity (OD405), read-out: IC50 values of compounds that inhibit Hh pathway
Description: (§1) The Application of SAG to Induce Pluripotent Mesenchymal Mouse Embryonic Cell C3H/10T1/2 to Differentiate into Osteoblastic Cells for the Determination of the Inhibitory Activity of N-(3-(1H-benzo[d]imidazol-2-yl)-4-chlorophenyl)-2-methyl-4-((2S,6R)-2,6-dimethylmorpholino)benzamide and Analogs on Hedgehog Signaling Pathway
The intracellular alkaline phosphatase activity is a reliable indication of the differentiation process. Therefore this enzymatic activity can be used to monitor the activity of hedgehog pathway inhibitors.
The C3H10T1/2 cells were grown in DMEM medium supplemented with 10% fetal bovine serum (FBS, Hyclone) at 37° C. with 5% CO2. 10000 cells were sown to each well of a 96-well microplate a day before the experiment and grown overnight. At the day of experiment, the inducing medium and inhibitor solutions were prepared as follows: the reference compound and testing compounds were serially diluted 1 to 3 and 1 to 10 in DMSO to seven concentrations with the eighth concentration being DMSO. A 10-fold dilution was prepared by mixing 10 μL of the DMSO dilution with 90 μL of fresh growing medium. […] Pre-sown cells were taken out from incubator and the medium was removed. To each well, 180 μL inducing medium was added and followed immediately with 20 μL of testing or reference compound dilutions. The testing compound concentrations are between 10 μM and 1 nM. The cells were then return to CO2 incubator to grow additional 5 days at 37° C.
(§2) After incubating for 5 days, the cells were taken out and intracellular alkaline phosphatase activity was tested. The alkaline phosphatase activity was measured as follows:
1) Preparation of Substrate Solution:
(§3) Solution A: A 0.5 mM MgCl2 (Sigma Prod. No. M-0250) solution was prepared.
(§4) After the pH value was adjusted to 9.8 with 5 M HCl at 37° C., the total volume was adjusted to 100 mL.
(§5) After it is completely dissolved the total volume was adjusted to 10 mL with the final concentration being 1 mM.
Substrate reaction medium: To 10 mL of solution B, 250 μL of solution A and 200 μL of solution C were added, and mixed well.
2) the Measurement of Intracellular Alkaline Phosphatase Activity:
(§6) After taking out the cells from the incubator, the cell culture medium was removed and cells were washed twice with PBS. 20 μL of lysis solution (0.2% Triton solution) was added to each well. After being shaken for 30 min at room temperature, each well of cells received 80 μL of substrate reaction medium. The microplate was placed immediately into a VariSkan Flashplate reader and absorbance at OD405 was read as background reading. The plate was replaced back to cell culture incubator at 37° C. for additional 30 min and the absorbance was read again using VariSkan Flash plate reader at OD405.
(§7) The data were analyzed by subtracting the background reading from the reading at 30 min, and the obtained numbers were plotted and analyzed with Prism 5 software (GraphPad). The phosphatase activity (calculated OD405) was plotted against the log concentration of testing compound, and the obtained plot was fitted with non-linear curve fitting equation to calculate IC50 values. The curve fitting equation is Y=Bottom+(Top−Bottom)/(1+10^((X−Log IC50))). X is the logarithm of concentration. Y is the measure of alkaline phosphatase activity (OD405).
(§8) The calculated IC50 value is a measurement of the inhibitory activity of compound to Hh pathway.

[2] = system: Hedgehog Signaling Pathway; assay: SHH-induced differentiation of C3H10T1/2 cells into osteoblastic cells, intracellular alkaline phosphatase activity; assay type: cell-based, mouse; conditions: Mus musculus, C3H 10T1/2, 120 h, 10 nM SHH-N, 5 days, alkaline phosphatase activity (OD405), read-out: IC50 values of compounds that inhibit Hh pathway
Procedure: as §1, with “SHH” for “SAG”, “C3H10T1/2” for “C3H/10T1/2”
The C3H10T1/2 cells were grown in DMEM medium supplemented with 10% fetal bovine serum (FBS, Hyclone) at 37° C. with 5% CO2. 10000 cells were sown to each well of a 96-well microplate a day before the experiment and grown overnight. […] The reference compound and testing compounds were serially diluted 1 to 3 and 1 to 10 in DMSO to seven concentrations with the eighth concentration being DMSO. A 10-fold dilution was prepared by mixing 10 μL of the DMSO dilutions with 90 μL of fresh growing medium. Pre-sown cells were taken out from incubator and the medium was removed. To each well, 180 μL of inducing medium containing 10 nM of SHH-N was added and followed immediately with 20 μL of 10× testing or reference compound dilutions. The testing compound concentrations are between 10 μM and 10 nM. The cells were then returned to CO2 incubator to grow additional 5 days at 37° C.
as §2
3) Preparation of Substrate Solution:
as §3, §4, §5
Substrate reaction medium: to 10 mL of solution B, 250 μL of solution A and 200 μL of solution C were added, and mixed well.
4) The Measurement of Intracellular Alkaline Phosphatase Activity:
as §6
as §7, with “Y=Bottom+(Top−Bottom)/(1+10^(X−Log IC50)).” for “Y=Bottom+(Top−Bottom)/(1+10^((X−Log IC50))).”
as §8

| Structure (SMILES) | pIC50 [1] | pIC50 [2] |
| --- | --- | --- |
| Cc1cc(N2CCCCC2)ccc1C(=O)Nc1ccc(Cl)c(-c2nc3ccccc3[nH]2)c1 [Example 31, N-(3-(1H-benzo[d]imidazol-2-yl)-4-chlorophenyl)-2-methyl-4-(piperidin-1-yl)benzamide] | 6.64 | 7.36 |
| C[C@@H]1CN(c2ccc(C(=O)Nc3ccc(Cl)c(-c4nc5ccccc5[nH]4)c3)c(N)c2)C[C@H](C)O1 [Example 33, N-(3-(1H-benzo[d]imidazol-2-yl)-4-chlorophenyl)-2-amino-4-((2S,6R)-2,6-dimethylmorpholino)benzamide] | 7.08 | 7.66 |
| C[C@@H]1CN(c2ccc3c(=O)n(-c4ccc(Cl)c(-c5nc6ccccc6[nH]5)c4)cnc3c2)C[C@H](C)O1 [Example 34, 3-(3-(1H-benzo[d]imidazol-2-yl)-4-chlorophenyl)-7-((2S,6R)-2,6-dimethylmorpholino)quinazolin-4(3H)-one] | 6.58 | 6.79 |
| C[C@@H]1CN(c2cc(Cl)c(C(=O)Nc3ccc(Cl)c(-c4nc5ccccc5[nH]4)c3)cn2)C[C@H](C)O1 [Example 36, N-(3-(1H-benzo[d]imidazol-2-yl)-4-chlorophenyl)-4-chloro-6-((2S,6R)-2,6-dimethylmorpholino)nicotinamide] | 6.44 | 7.02 |
| Cc1cc(C(=O)Nc2ccc(Cl)c(-c3nc4ccccc4[nH]3)c2)cnc1N1C[C@@H](C)O[C@@H](C)C1 [Example 37, N-(3-(1H-benzo[d]imidazol-2-yl)-4-chlorophenyl)-5-methyl-6-((2S,6R)-2,6-dimethylmorpholino)nicotinamide] | 6.78 | 7.28 |
| Cc1cc(-c2cccnc2)ccc1C(=O)Nc1ccc(Cl)c(-c2nc3ccccc3[nH]2)c1 [Example 40, N-(3-(1H-benzo[d]imidazol-2-yl)-4-chlorophenyl)-2-methyl-4-(pyridin-3-yl)benzamide] | 7.57 | 7.89 |
| Cc1cc(-c2ccoc2)ccc1C(=O)Nc1ccc(Cl)c(-c2nc3ccccc3[nH]2)c1 [Example 41, N-(3-(1H-benzo[d]imidazol-2-yl)-4-chlorophenyl)-2-methyl-4-(furan-3-yl)benzamide] | 7.00 | 7.49 |
| Cc1cc(-c2ccsc2)ccc1C(=O)Nc1ccc(Cl)c(-c2nc3ccccc3[nH]2)c1 [Example 42, N-(3-(1H-benzo[d]imidazol-2-yl)-4-chlorophenyl)-2-methyl-4-(thiophen-3-yl)benzamide] | 6.64 | 6.47 |
| Cc1cc(-c2ccc(C(F)(F)F)cc2)ccc1C(=O)Nc1cccc(-c2nc3ccccc3[nH]2)c1 [Example 45, N-(3-(1H-benzo[d]imidazol-2-yl)phenyl)-3-methyl-4′-(trifluoromethyl)biphenyl-4-carboxamide] | 6.55 | 7.70 |
| Cc1cc(-c2ccc(C(F)(F)F)cc2)ccc1C(=O)N(C)c1ccc(Cl)c(-c2nc3ccccc3[nH]2)c1 [Example 48, N-(3-(1H-benzo[d]imidazol-2-yl)-4-chlorophenyl)-N,3-dimethyl-4′-(trifluoromethyl)biphenyl-4-carboxamide] | < 5.00 | < 5.00 |
| Cc1cc(-c2ccc(C(F)(F)F)cc2)ccc1C(=O)Nc1ccc(Cl)c(-c2nnc3ccccn23)c1 [Example 52, N-(3-([1,2,4]triazolo[4,3-a]pyridin-3-yl)-4-chlorophenyl)-3-methyl-4′-(trifluoromethyl)biphenyl-4-carboxamide] | 6.13 | 6.33 |
| Cc1cc(-c2ccc(C(F)(F)F)cc2)ccc1C(=O)Nc1ccc(Cl)c(-c2nnc3ncccn23)c1 [Example 53, N-(3-([1,2,4]triazolo[4,3-a]pyrimidin-3-yl)-4-chlorophenyl)-3-methyl-4′-(trifluoromethyl)biphenyl-4-carboxamide] | < 5.00 | < 5.00 |
| Cc1cc(-c2ccc(C(F)(F)F)cc2)ccc1C(=O)Nc1ccc(Cl)c(-c2nnc3cnccn23)c1 [Example 54, N-(3-([1,2,4]triazolo[4,3-a]pyrazin-3-yl)-4-chlorophenyl)-3-methyl-4′-(trifluoromethyl)biphenyl-4-carboxamide] | < 5.00 | < 5.00 |
| Cc1cc(-c2ccc(C(F)(F)F)cc2)ccc1C(=O)Nc1cc(-c2nc3ccccc3[nH]2)ccn1 [Example 61, N-(4-(1H-benzo[d]imidazol-2-yl)pyridin-2-yl)-3-methyl-4′-(trifluoromethyl)biphenyl-4-carboxamide] | < 5.00 | < 5.00 |

Results, then the compound that gave them:

| pIC50 [1] | pIC50 [2] | Structure (SMILES) |
| --- | --- | --- |
| 6.86 | 7.74 | O=C(Nc1ccc(Cl)c(-c2nc3ccccc3[nH]2)c1)C1CCC(c2ccccc2)CC1 (stereo not shown) [Example 44, N-(3-(1H-benzo[d]imidazol-2-yl)-4-chlorophenyl)-4-phenylcyclohexanecarboxamide] |
| < 5.00 | 7.11 | Cc1cc(-c2ccc(C(F)(F)F)cc2)ccc1C(=O)Nc1ccc(Cl)c(-c2ncc(-c3cccnc3)[nH]2)c1 [Example 51, N-(3-(5-(pyridin-3-yl)-1H-imidazol-2-yl)-4-chlorophenyl)-3-methyl-4′-(trifluoromethyl)biphenyl-4-carboxamide] |
| < 5.00 | < 5.00 | Cc1cc(-c2ccc(C(F)(F)F)cc2)ccc1C(=O)Nc1cccc(-c2cn3cccnc3n2)c1 [Example 55, N-(3-(imidazo[1,2-a]pyrimidin-2-yl)phenyl)-3-methyl-4′-(trifluoromethyl)biphenyl-4-carboxamide] |
| 5.63 | 6.72 | Cc1cc(-c2ccc(C(F)(F)F)cc2)ccc1C(=O)Nc1cccc(-c2cn3ccccc3n2)c1 [Example 56, N-(3-(imidazo[1,2-a]pyridin-2-yl)phenyl)-3-methyl-4′-(trifluoromethyl)biphenyl-4-carboxamide] |
| < 5.00 | < 5.00 | C[C@@H]1CN(c2ccc(C(=O)Nc3cccc(-c4cn5cccnc5n4)c3)cn2)C[C@H](C)O1 [Example 57, N-(3-(imidazo[1,2-a]pyrimidin-2-yl)phenyl)-6-((2S,6R)-2,6-dimethylmorpholino)nicotinamide] |
| < 5.00 | < 5.00 | C[C@@H]1CN(c2ccc(C(=O)Nc3ccc(Cl)c(-c4nnc5cnccn45)c3)cn2)C[C@H](C)O1 [Example 58, N-(3-([1,2,4]triazolo[4,3-a]pyrazin-3-yl)-4-chlorophenyl)-6-((2S,6R)-2,6-dimethylmorpholino)nicotinamide] |
